Entries after “also recorded” stand apart in the source; their conditions may differ.
Assays:
[1] = First cadaver skin flux study (radiolabelled 25HC3S, diffusion cells, % dose recovered); format: in vitro ADME; conditions: from comparison of formulations in cadaver skin study
Method: The formulations shown in the below Table 22 were made. Each of the below formulations containing drug included 1 wt % non-radiolabelled 25HC3S since the maximum drug loading achieved in Carbopol based creams or gels was 1 wt %. In positive control C1, 20 wt % DMSO was included in EtOH to achieve 1 wt % drug loading.
The procedure for mixing radiolabelled C^14-25HC3S with each formulation was as follows. Formulation (1 mL of each) was placed into 1 mL vials. To each vial was added 5 μL EtOH containing hot material ([…] radiolabelled 25HC3S). The mixture was mixed using a small plunger for 4 to 5 minutes until uniform.
The above formulations were tested on cadaver skin as follows. Dermatomed cadaver skin was obtained from thigh and abdominal areas. A total of 4 donor skin samples (4 separate experiments) were used in the study. Skin samples were placed on diffusion cells (see below) at least 2 hours prior to dosing. Skin sample integrity was examined by measuring […] water loss (TEWL).
The diffusion cells had 1 cm^2 surface area. Each sample at each testing point had 2-3 replicates.
The dose was 10-25 μL of formulation each containing 0.2-0.5 μCi radioactivity per diffusion cell.
The receptor fluid was 6% PEG 400 in PBS. The receptor fluid flow rate was continuous flow at 4.7 mL/hr.
For dose application, the net amount was determined by weight difference before and after dosing application.
The total skin exposure time was 24 hours. After 8 hours of skin exposure, skin surface dose residues were removed by 5% soap-water washing as follows: (1) two times with small cotton balls wetted with 5% clear Ivory® liquid soap (Proctor and Gamble); and (2) two times with cotton balls wetted with distilled de-ionized water to recover the residual drug content, and a final drying with a dry cotton ball. After 16 hours of additional skin exposure (after skin washing), the experiment was finished.
The dosed skin was first tape stripped 10 times followed with heat separation of viable epidermis and dermis. Receptor fluid samples were collected at 30 min, 1 hour, 2 hour, and every 2 hours until the end of the experiment. All samples were counted for radioactivity

chronic dermatitis = assay: Case report: topical therapy of chronic dermatitis following poison ivy attack; format: in vivo, Human; conditions: one person, topical once every three days, three applications
Method: A case report: A volunteer had been suffering from chronic dermatitis with intense itching following a poison ivy attack two years earlier. The affected area was externally treated with 0.5 ml of 5 mg/ml of 25HC3S sodium salt in a body lotion (Cococare®, Vitamin E Cream) once every three days for a total of three applications.

Compound	trend as permeation enhancer (PE) [1]	itching, redness and swelling (chronic dermatitis; 0.5 ml of 5 mg/ml in body lotion (Cococare Vitamin E Cream))	skin recovery (chronic dermatitis; 0.5 ml of 5 mg/ml in body lotion)
CCO [EtOH, ethanol]	high PE; also recorded: great permeation enhancer		
CC(O)CO (stereo not drawn) [PG, propylene glycol]	may be about the same as OA; also recorded: good permeation enhancer		
PEG 400	poor permeation enhancer		
CCCCCCCCCCCCOC(=O)C(C)O (stereo not drawn) [LL, Lauryl lactate]	may be more effective than PG		
C[C@H](CCCC(C)(C)O)[C@H]1CC[C@H]2[C@@H]3CC=C4CC(OS(=O)(=O)[O-])CC[C@]4(C)[C@H]3CC[C@]12C.[Na+] (stereo partly drawn) [25HC3S sodium salt, 5-cholesten-3, 25-diol, 3-sulfate]		Within two days, the itching subsided, and redness and swelling decreased	almost completely recovered in 10 days

From US20190374554A1, “USE OF OXYGENATED CHOLESTEROL SULFATES (OCS) TO TREAT INFLAMMATORY SKIN DISEASE AND SKIN LESIONS” (Virginia Commonwealth University, priority 2016, published 2019)
